The source of these data is ChEMBL document CHEMBL1201862, “PubChem BioAssay data set” (2004).

Test systems include KM-20L2; HCC 2998; RPMI-8226; OVCAR-5; RXF 393; UO-31; HT-29; SK-OV-3; U-251; COLO 205; Malme-3M; SNB-19; M14; OVCAR-4; 786-0; HOP-62; DU-145; MCF7; Hs-578T; BT-549.
Common to all, as to experiment: NCI tumour cell line growth inhibition, 48 h

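In this assay, cells in 96-well plates receive the compound at five concentrations for 48 hours. Endpoints are linearly interpolated between the surrounding concentrations. GI50 marks 50% less growth.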 Activity calls are given as the source filed them. Rule as the data show it: active = GI50 up to about 1.1 µM and inactive = higher.

With `NC1=NS(=O)(=O)Nc2nc(-c3ccccc3)c(-c3ccccc3)nc21`, the GI50 in the experiment on KM-20L2, in the experiment on HCC 2998, with RPMI-8226, with OVCAR-5, with RXF 393 and in the experiment on UO-31 was > 100 µM (inactive) in each case. Moreover, the GI50 in the experiment on HT-29, in the experiment on SK-OV-3, in the experiment on U-251, with COLO 205, in the experiment with Malme-3M and in the experiment with SNB-19 was > 100 µM (inactive) each time. Further, the GI50 with M14, in the experiment on OVCAR-4 and with 786-0 was > 100 µM (inactive) each time.
Take `Cc1cc(NCCCCCCCCNc2cc(C)nc3cc(N)ccc23)c2ccc(N)cc2n1`: the GI50 in the experiment on KM-20L2 is 19 µM (inactive); in the experiment with HCC 2998 it was 15.1 µM (inactive); in the experiment on RPMI-8226, 6.68 µM (inactive); in the experiment on OVCAR-5 it was 22.5 µM (inactive); in the experiment on RXF 393, 27.7 µM (inactive); in the experiment on UO-31, > 100 µM (inactive). In addition, the GI50 in the experiment on HT-29 was 21.8 µM (inactive); in the experiment on SK-OV-3, 38.5 µM (inactive); with U-251 it was 8.57 µM (inactive); in the experiment on COLO 205, 6.4 µM (inactive); in the experiment on SNB-19, 14.1 µM (inactive); in the experiment with M14 it was 16.7 µM (inactive). In addition, the GI50 in the experiment with OVCAR-4 was 17.3 µM (inactive); in the experiment on 786-0, 18.9 µM (inactive); in the experiment with HOP-62 it was 26.9 µM (inactive).
In the case of `O=c1c2cccnc2ncn1CCN1CCCCC1`, the GI50 with KM-20L2, in the experiment with HCC 2998, with OVCAR-5, with RXF 393, in the experiment with UO-31 and in the experiment with HT-29 was > 100 µM (inactive) throughout. In addition, the GI50 in the experiment with SK-OV-3, in the experiment with U-251, with COLO 205, in the experiment on Malme-3M, with SNB-19 and with M14 was > 100 µM (inactive) in each case. For the same compound, the GI50 with OVCAR-4, with 786-0 and in the experiment with HOP-62 was > 100 µM (inactive) each time.
For the compound `O=C1c2ccccc2NC(=S)[C@@H]2CCCN12`, the GI50 in the experiment with HCC 2998, in the experiment with RPMI-8226, with OVCAR-5, in the experiment with RXF 393, with DU-145 and in the experiment on UO-31 was > 100 µM (inactive) throughout. The GI50 in the experiment on HT-29, with MCF7, in the experiment on SK-OV-3, with U-251, in the experiment on COLO 205 and in the experiment on Hs-578T was > 100 µM (inactive) in each case. Besides, the GI50 with Malme-3M, in the experiment with SNB-19, in the experiment with M14, in the experiment with OVCAR-4, in the experiment with 786-0 and in the experiment on HOP-62 was > 100 µM (inactive) in each case. The GI50 with BT-549 was > 100 µM (inactive).
On to `COC(=O)/C(C#N)=C1\CCc2ccccc21`, for which the GI50 in the experiment on KM-20L2, in the experiment with HCC 2998, with RPMI-8226, with OVCAR-5, with RXF 393 and with UO-31 was > 100 µM (inactive) in each case. For the same compound, the GI50 with HT-29, with SK-OV-3, in the experiment on COLO 205, with Malme-3M, with SNB-19 and in the experiment with M14 was > 100 µM (inactive) each time. Further, the GI50 with OVCAR-4 and with 786-0 was > 100 µM (inactive) throughout.
With `CC(=O)Nc1ccc(S(=O)(=O)c2nnc(NC(C)=O)s2)cc1`, the GI50 with HCC 2998, in the experiment on RPMI-8226, in the experiment with OVCAR-5, in the experiment with RXF 393, in the experiment with DU-145 and in the experiment on UO-31 was > 100 µM (inactive) throughout. The GI50 with HT-29 was > 100 µM (inactive); in the experiment on MCF7, > 100 µM (inactive); in the experiment with SK-OV-3 it was > 100 µM (inactive); in the experiment on U-251, > 100 µM (inactive); in the experiment on COLO 205, 0.215 µM (active); in the experiment on Hs-578T, > 100 µM (inactive). In addition, the GI50 with Malme-3M, in the experiment on SNB-19, in the experiment with M14, with OVCAR-4, in the experiment on 786-0 and in the experiment on HOP-62 was > 100 µM (inactive) throughout. Also, the GI50 in the experiment with BT-549 is > 100 µM (inactive).
With `COc1cc(CNc2cnc3cc(N)ccc3n2)cc(OC)c1OC`, the GI50 is 14 µM (inactive) in the experiment with KM-20L2; 35.1 µM (inactive) in the experiment with HCC 2998; 68.2 µM (inactive) in the experiment on OVCAR-5; 36.8 µM (inactive) in the experiment with UO-31; 16.9 µM (inactive) in the experiment on HT-29; 20.7 µM (inactive) with SK-OV-3. Also, the GI50 is 29.2 µM (inactive) in the experiment on U-251; 22.4 µM (inactive) with COLO 205; 52.5 µM (inactive) in the experiment on Malme-3M; 34.8 µM (inactive) with SNB-19; 16.4 µM (inactive) with M14; > 100 µM (inactive) with OVCAR-4. For the same compound, the GI50 in the experiment on 786-0 was 43.7 µM (inactive); in the experiment on HOP-62, 51.4 µM (inactive).
In the case of `C=CCSC1=N/C(=C\c2ccc(OC)cc2)C(=O)N1CC=C`, the GI50 in the experiment on HCC 2998 is 23.9 µM (inactive); in the experiment with RPMI-8226 it was 15.5 µM (inactive); with OVCAR-5 it was 57.8 µM (inactive); in the experiment on RXF 393, 14.6 µM (inactive); in the experiment on DU-145, 42.2 µM (inactive); in the experiment with UO-31, 34.3 µM (inactive). Besides, the GI50 was 20.2 µM (inactive) in the experiment with HT-29; 28.4 µM (inactive) in the experiment with MCF7; > 100 µM (inactive) in the experiment with SK-OV-3; 24.3 µM (inactive) with U-251; 20.4 µM (inactive) in the experiment with COLO 205; 64.7 µM (inactive) with Hs-578T. Also, the GI50 was 27.7 µM (inactive) with Malme-3M; 84.3 µM (inactive) with SNB-19; 36.7 µM (inactive) with M14; 28.2 µM (inactive) in the experiment with OVCAR-4; 25.5 µM (inactive) in the experiment with 786-0; 74.6 µM (inactive) with HOP-62. Also, in the experiment with BT-549, the GI50 is 27 µM (inactive).
Take `N#Cc1c2nc3ccccc3nc2n2ccccc12`: the GI50 was > 100 µM (inactive) in the experiment on KM-20L2; > 100 µM (inactive) in the experiment on HCC 2998; > 100 µM (inactive) with RPMI-8226; > 100 µM (inactive) with OVCAR-5; > 100 µM (inactive) with UO-31; 0.63 µM (active) in the experiment with SK-OV-3. Further, the GI50 in the experiment with U-251, in the experiment on COLO 205, in the experiment with Malme-3M, with SNB-19, in the experiment on M14 and in the experiment on OVCAR-4 was > 100 µM (inactive) in each case. For the same compound, the GI50 in the experiment with 786-0 and in the experiment with HOP-62 was > 100 µM (inactive) each time.
For the compound `CCOC(=O)CN.CCOC(=O)Nc1ccc(S(=O)(=O)OC)cc1.CCOC(=O)Nc1ccc(S(=O)(=O)OC)cc1`, the GI50 with KM-20L2, with HCC 2998, in the experiment on RPMI-8226, in the experiment with OVCAR-5, in the experiment on UO-31 and in the experiment on HT-29 was > 50 µM (inactive) throughout. Also, the GI50 in the experiment with SK-OV-3 was > 50 µM (inactive); in the experiment with U-251 it was 9.25 µM (inactive); in the experiment with COLO 205, > 50 µM (inactive); with Malme-3M it was > 50 µM (inactive); in the experiment with SNB-19, > 50 µM (inactive); in the experiment with M14 it was > 50 µM (inactive). Besides, the GI50 with OVCAR-4, in the experiment with 786-0 and in the experiment with HOP-62 was > 50 µM (inactive) in each case.
For `Cc1ccc(O)c(C(=O)CCCC(=O)c2cc(C)ccc2O)c1`, the GI50 with KM-20L2 is > 100 µM (inactive); in the experiment with HCC 2998 it was 0.152 µM (active); in the experiment with RPMI-8226, > 100 µM (inactive); in the experiment with OVCAR-5, > 100 µM (inactive); in the experiment on UO-31, 44.9 µM (inactive); with HT-29 it was > 100 µM (inactive). Moreover, the GI50 with SK-OV-3 was > 100 µM (inactive); in the experiment with U-251 it was 52.4 µM (inactive); with COLO 205, > 100 µM (inactive); in the experiment with Malme-3M, > 100 µM (inactive); with SNB-19 it was 46.1 µM (inactive); in the experiment with M14, > 100 µM (inactive). Besides, the GI50 is 74.5 µM (inactive) in the experiment with OVCAR-4, 38.3 µM (inactive) in the experiment with 786-0 and > 100 µM (inactive) with HOP-62.
Turning to `CC(C)C[C@H](NC(=O)[C@H](Cc1ccc(F)cc1)NC(=O)c1ccccn1)B(O)O`, the GI50 with HCC 2998, with RPMI-8226, with OVCAR-5, in the experiment on RXF 393, with DU-145 and in the experiment on UO-31 was < 0.01 µM (active) in each case. Also, the GI50 was < 0.01 µM (active) in the experiment on HT-29; < 0.01 µM (active) with MCF7; < 0.0148 µM (active) with SK-OV-3; < 0.01 µM (active) in the experiment on U-251; < 0.01 µM (active) in the experiment on COLO 205; < 0.01 µM (active) in the experiment on Hs-578T. The GI50 in the experiment on Malme-3M, in the experiment on SNB-19, with M14, with OVCAR-4, in the experiment on 786-0 and in the experiment on HOP-62 was < 0.01 µM (active) throughout. In the experiment with BT-549, the GI50 was < 0.01 µM (active).
